ChEMBL document CHEMBL4680155, “One-pot synthesis and molecular docking of some new spiropyranindol-2-one derivatives as immunomodulatory agents and in vitro antimicrobial potential with DNA gyrase inhibitor” (Eur J Med Chem, 2020)
Converted amounts (≈) assume the structure as drawn.

Experiments:
[1] = tested on: Enterococcus faecalis; assay: Antibacterial activity against Enterococcus faecalis ATCC 29212 assessed as diameter of inhibition zone at 0.5 mg/ml incubated for 24 hrs by agar diffusion method; type: functional; settings: read-out: DIZ
[2] = tested on: Staphylococcus aureus; assay: Antibacterial activity against Staphylococcus aureus ATCC 29213 assessed as diameter of inhibition zone at 0.5 mg/ml incubated for 24 hrs by agar diffusion method; type: functional; settings: read-out: DIZ
[3] = tested on: Escherichia coli; assay: Antibacterial activity against Escherichia coli ATCC 25922 assessed as diameter of inhibition zone at 0.5 mg/ml incubated for 24 hrs by agar diffusion method; type: functional; settings: read-out: DIZ
[4] = tested on: Salmonella typhimurium; assay: Antibacterial activity against Salmonella typhi ATCC 6539 assessed as diameter of inhibition zone at 0.5 mg/ml incubated for 24 hrs by agar diffusion method; type: functional, Salmonella enterica subsp. enterica serovar Typhimurium; settings: Salmonella enterica, read-out: DIZ
[5] = tested on: Candida albicans; assay: Antifungal activity against Candida albicans ATCC 10231 assessed as diameter of inhibition zone at 0.5 mg/ml incubated for 24 hrs by agar diffusion method; type: functional; settings: read-out: DIZ
[6] = tested on: Aspergillus brasiliensis; assay: Antifungal activity against Aspergillus brasiliensis ATCC 16404 assessed as diameter of inhibition zone at 0.5 mg/ml incubated for 72 hrs by agar diffusion method; type: functional; settings: read-out: DIZ
[7] = tested on: Enterococcus faecalis; assay: Antibacterial activity against Enterococcus faecalis ATCC 29212 assessed as reduction in bacterial growth incubated for 1 day by paper disk diffusion method; type: functional; settings: ATCC 29212, 24 h
[8] = tested on: Staphylococcus aureus; assay: Antibacterial activity against Staphylococcus aureus ATCC 29213 assessed as reduction in bacterial growth incubated for 1 day by paper disk diffusion method; type: functional; settings: ATCC 29213, 24 h
[9] = tested on: Escherichia coli; assay: Antibacterial activity against Escherichia coli ATCC 25922 assessed as reduction in bacterial growth incubated for 1 day by paper disk diffusion method; type: functional; settings: ATCC 25922, 24 h
[10] = tested on: Salmonella typhimurium; assay: Antibacterial activity against Salmonella typhi ATCC 6539 assessed as reduction in bacterial growth incubated for 1 day by paper disk diffusion method; type: functional, Salmonella enterica subsp. enterica serovar Typhimurium; settings: Salmonella enterica, ATCC 6539, 24 h
[11] = tested on: Candida albicans; assay: Antifungal activity against Candida albicans ATCC 10231 assessed as reduction in bacterial growth incubated for 1 day by paper disk diffusion method; type: functional; settings: ATCC 10231, 24 h
[12] = tested on: Aspergillus brasiliensis; assay: Antifungal activity against Aspergillus brasiliensis ATCC 16404 assessed as reduction in bacterial growth incubated for 3 days by paper disk diffusion method; type: functional; settings: ATCC 16404, 72 h, time 3 day
[13] = tested on: Enterococcus faecalis; assay: Bactericidal activity against Enterococcus faecalis ATCC 29212 incubated for 24 hrs followed by transferring to freshly prepared broth medium and measured after 24 hrs by broth microdilution assay; type: functional; settings: time 48 hrs
[14] = tested on: Staphylococcus aureus; assay: Bactericidal activity against Staphylococcus aureus ATCC 29213 incubated for 24 hrs followed by transferring to freshly prepared broth medium and measured after 24 hrs by broth microdilution assay; type: functional; settings: time 48 hrs
[15] = tested on: Escherichia coli; assay: Bactericidal activity against Escherichia coli ATCC 25922 incubated for 24 hrs followed by transferring to freshly prepared broth medium and measured after 24 hrs by broth microdilution assay; type: functional; settings: time 48 hrs
[16] = tested on: Salmonella typhimurium; assay: Bactericidal activity against Salmonella typhi ATCC 6539 incubated for 24 hrs followed by transferring to freshly prepared broth medium and measured after 24 hrs by broth microdilution assay; type: functional, Salmonella enterica subsp. enterica serovar […]; settings: Salmonella enterica, time 48 hrs
[17] = tested on: Candida albicans; assay: Fungicidal activity against Candida albicans ATCC 10231 incubated for 24 hrs followed by transferring to freshly prepared broth medium and measured after 24 hrs by broth microdilution assay; type: functional; settings: time 48 hrs
[18] = tested on: Aspergillus brasiliensis; assay: Fungicidal activity against Aspergillus brasiliensis ATCC 16404 incubated for 72 hrs followed by transferring to freshly prepared broth medium and measured after 24 hrs by broth microdilution assay; type: functional; settings: time 96 hrs
[19] = tested on: Staphylococcus aureus; assay: Antibacterial activity against multidrug resistant Staphylococcus aureus ATCC 43300 assessed as diameter of inhibition zone at 0.5 mg/ml incubated for 24 hrs by agar diffusion method; type: functional; settings: read-out: DIZ
[20] = tested on: Staphylococcus aureus; assay: Antibacterial activity against multidrug resistant Staphylococcus aureus ATCC 33591 assessed as diameter of inhibition zone at 0.5 mg/ml incubated for 24 hrs by agar diffusion method; type: functional; settings: read-out: DIZ
[21] = tested on: Escherichia coli; assay: Antibacterial activity against multidrug resistant Escherichia coli ATCC BAA-196 assessed as diameter of inhibition zone at 0.5 mg/ml incubated for 24 hrs by agar diffusion method; type: functional; settings: read-out: DIZ
[22] = tested on: Pseudomonas aeruginosa; assay: Antibacterial activity against multidrug resistant Pseudomonas aeruginosa ATCC BAA-2111 assessed as diameter of inhibition zone at 0.5 mg/ml incubated for 24 hrs by agar diffusion method; type: functional; settings: read-out: DIZ
[23] = tested on: Staphylococcus aureus; assay: Antibacterial activity against multidrug resistant Staphylococcus aureus ATCC 43300 assessed as reduction in bacterial growth incubated for 1 day by paper disk diffusion method; type: functional; settings: ATCC 43300, 24 h
[24] = tested on: Staphylococcus aureus; assay: Antibacterial activity against multidrug resistant Staphylococcus aureus ATCC 33591 assessed as reduction in bacterial growth incubated for 1 day by paper disk diffusion method; type: functional; settings: ATCC 33591, 24 h
[25] = tested on: Escherichia coli; assay: Antibacterial activity against multidrug resistant Escherichia coli ATCC BAA-196 assessed as reduction in bacterial growth incubated for 1 day by paper disk diffusion method; type: functional; settings: ATCC BAA-196, 24 h
[26] = tested on: Pseudomonas aeruginosa; assay: Antibacterial activity against multidrug resistant Pseudomonas aeruginosa ATCC BAA-2111 assessed as reduction in bacterial growth incubated for 1 day by paper disk diffusion method; type: functional; settings: ATCC BAA-2111, 24 h
[27] = tested on: Staphylococcus aureus; assay: Bactericidal activity against Staphylococcus aureus ATCC 43300 incubated for 24 hrs followed by transferring to freshly prepared broth medium and measured after 24 hrs by broth microdilution assay; type: functional; settings: time 48 hrs
[28] = tested on: Staphylococcus aureus; assay: Bactericidal activity against Staphylococcus aureus ATCC 33591 incubated for 24 hrs followed by transferring to freshly prepared broth medium and measured after 24 hrs by broth microdilution assay; type: functional; settings: time 48 hrs
[29] = tested on: Escherichia coli; assay: Bactericidal activity against Escherichia coli ATCC BAA-196 incubated for 24 hrs followed by transferring to freshly prepared broth medium and measured after 24 hrs by broth microdilution assay; type: functional; settings: time 48 hrs
[30] = tested on: Pseudomonas aeruginosa; assay: Bactericidal activity against Pseudomonas aeruginosa ATCC BAA-2111 incubated for 24 hrs followed by transferring to freshly prepared broth medium and measured after 24 hrs by broth microdilution assay; type: functional; settings: time 48 hrs
[31] = tested on: Neutrophil; assay: Immunomodulatory activity in human neutrophils infected with bacteria assessed as increase in bacterial killing by measuring reduced NBT incubated for 30 mins by NBT dye based spectrophotometry; type: functional; design: concentration or dose not given beside the values; settings: 0.5 h
[32] = target: DNA gyrase (Staphylococcus aureus, UniProt P0A0K8+P20831); assay: Inhibition of Staphylococcus aureus DNA gyrase using relaxed pBR322 DNA as substrate incubated for 45 mins by agarose gel electrophoresis method; type: protein-complex assay
Sequence of DNA gyrase (P0A0K8 whole entry): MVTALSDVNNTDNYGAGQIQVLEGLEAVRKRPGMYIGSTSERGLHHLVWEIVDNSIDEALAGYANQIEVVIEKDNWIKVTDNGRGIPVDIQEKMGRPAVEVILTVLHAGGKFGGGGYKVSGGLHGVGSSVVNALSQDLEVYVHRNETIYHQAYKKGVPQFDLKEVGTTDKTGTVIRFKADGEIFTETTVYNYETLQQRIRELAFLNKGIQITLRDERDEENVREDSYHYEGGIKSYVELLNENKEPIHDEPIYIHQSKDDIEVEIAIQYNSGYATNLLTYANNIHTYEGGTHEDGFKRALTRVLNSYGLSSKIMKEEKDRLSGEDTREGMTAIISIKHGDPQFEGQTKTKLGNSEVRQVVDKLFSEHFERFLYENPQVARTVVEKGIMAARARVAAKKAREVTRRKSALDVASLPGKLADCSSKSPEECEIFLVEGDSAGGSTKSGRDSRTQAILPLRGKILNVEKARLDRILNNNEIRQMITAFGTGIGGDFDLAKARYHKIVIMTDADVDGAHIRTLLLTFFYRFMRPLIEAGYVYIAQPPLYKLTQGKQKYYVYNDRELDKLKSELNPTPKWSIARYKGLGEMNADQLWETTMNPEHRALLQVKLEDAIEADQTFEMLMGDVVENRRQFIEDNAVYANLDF
Sequence of DNA gyrase (P20831 whole entry): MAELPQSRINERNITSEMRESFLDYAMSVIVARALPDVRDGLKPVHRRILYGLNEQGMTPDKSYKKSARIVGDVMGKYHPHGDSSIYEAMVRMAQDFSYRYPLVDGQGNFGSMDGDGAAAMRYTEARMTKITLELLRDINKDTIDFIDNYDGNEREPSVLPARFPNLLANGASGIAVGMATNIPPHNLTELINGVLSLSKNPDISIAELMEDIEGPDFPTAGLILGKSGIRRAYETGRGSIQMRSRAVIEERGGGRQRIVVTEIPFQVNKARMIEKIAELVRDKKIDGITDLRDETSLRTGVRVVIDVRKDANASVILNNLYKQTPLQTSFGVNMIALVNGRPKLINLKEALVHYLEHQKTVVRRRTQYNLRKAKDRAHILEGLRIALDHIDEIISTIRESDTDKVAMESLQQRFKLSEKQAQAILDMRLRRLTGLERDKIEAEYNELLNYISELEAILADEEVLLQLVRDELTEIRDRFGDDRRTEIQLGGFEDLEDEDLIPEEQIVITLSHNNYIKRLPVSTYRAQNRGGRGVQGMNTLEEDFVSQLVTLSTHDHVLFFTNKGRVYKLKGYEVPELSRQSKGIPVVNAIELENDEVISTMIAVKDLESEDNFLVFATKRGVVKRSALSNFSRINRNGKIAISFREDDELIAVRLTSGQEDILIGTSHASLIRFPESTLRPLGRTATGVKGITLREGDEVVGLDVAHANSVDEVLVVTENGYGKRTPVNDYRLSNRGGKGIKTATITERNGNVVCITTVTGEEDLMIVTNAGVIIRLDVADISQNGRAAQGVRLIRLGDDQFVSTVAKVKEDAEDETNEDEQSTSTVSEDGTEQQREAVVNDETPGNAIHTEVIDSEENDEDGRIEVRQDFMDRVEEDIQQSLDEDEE

Row | Compound | zone of inhibition at 500 µg/mL [1] [mm] | zone of inhibition at 500 µg/mL [2] [mm] | zone of inhibition at 500 µg/mL [3] [mm] | zone of inhibition at 500 µg/mL [4] [mm] | zone of inhibition at 500 µg/mL [5] [mm] | zone of inhibition at 500 µg/mL [6] [mm] | MIC [7] [µg/mL] | MIC [8] [µg/mL] | MIC [9] [µg/mL] | MIC [10] [µg/mL] | MIC [11] [µg/mL] | MIC [12] [µg/mL] | MBC [13] [µg/mL] | MBC [14] [µg/mL] | MBC [15] [µg/mL] | MBC [16] [µg/mL] | MFC [17] [µg/mL] | MFC [18] [µg/mL] | zone of inhibition at 500 µg/mL [19] [mm] | zone of inhibition at 500 µg/mL [20] [mm] | also measured
1 | CCOC(=O)C1=C(N)OC(c2ccccc2)=C(C(=O)OCC)C12C(=O)Nc1ccc(S(=O)(=O)N3CCCCC3)cc12 (stereo unspecified) | 22 | 21 | 23 | 21 | 21 | 17 | 7.81 (≈ 13.4 µM) | 88.3 (≈ 152 µM) | 8.88 (≈ 15.3 µM) | 15.6 (≈ 26.9 µM) | 15.6 (≈ 26.9 µM) | 71.8 (≈ 123 µM) | 15.6 (≈ 26.9 µM) | 150 (≈ 258 µM) | 11.5 (≈ 19.8 µM) | 21.9 (≈ 37.6 µM) | 21.9 (≈ 37.6 µM) | 115 (≈ 197 µM) | 22 | 22 | zone of inhibition at 500 µg/mL [21]: 23 mm; zone of inhibition at 500 µg/mL [22]: 22 mm; MIC [23]: 6.25 µg/mL (≈ 10.7 µM); MIC [24]: 6.25 µg/mL (≈ 10.7 µM); MIC [25]: 4.44 µg/mL (≈ 7.63 µM); MIC [26]: 5.2 µg/mL (≈ 8.94 µM); MBC [27]: 10 µg/mL (≈ 17.2 µM); MBC [28]: 9.37 µg/mL (≈ 16.1 µM); MBC [29]: 5.32 µg/mL (≈ 9.15 µM); MBC [30]: 8.84 µg/mL (≈ 15.2 µM); Activity [31]: 139.3%; IC50 [32]: 23.2 µM
2 | CCOC(=O)C1=C(N)OC(c2ccccc2)=C(C(C)=O)C12C(=O)Nc1ccc(S(=O)(=O)N3CCOCC3)cc12 (stereo unspecified) | 25 | 23 | 25 | 23 | 24 | 21 | 12.5 (≈ 22.6 µM) | 62.5 (≈ 113 µM) | 6.25 (≈ 11.3 µM) | 35.5 (≈ 64.2 µM) | 17.8 (≈ 32.1 µM) | 35.5 (≈ 64.2 µM) | 25 (≈ 45.2 µM) | 81.2 (≈ 147 µM) | 12.5 (≈ 22.6 µM) | 49.8 (≈ 89.9 µM) | 24.9 (≈ 44.9 µM) | 71.1 (≈ 128 µM) | 23 | 24 | zone of inhibition at 500 µg/mL [21]: 24 mm; zone of inhibition at 500 µg/mL [22]: 25 mm; MIC [23]: 3.9 µg/mL (≈ 7.04 µM); MIC [24]: 3.9 µg/mL (≈ 7.04 µM); MIC [25]: 3.9 µg/mL (≈ 7.04 µM); MIC [26]: 2.6 µg/mL (≈ 4.7 µM); MBC [27]: 7.8 µg/mL (≈ 14.1 µM); MBC [28]: 7.8 µg/mL (≈ 14.1 µM); MBC [29]: 6.24 µg/mL (≈ 11.3 µM); MBC [30]: 5.2 µg/mL (≈ 9.39 µM); Activity [31]: 95.6%; IC50 [32]: 20.1 µM
3 | N#CC(C#N)=C1C(=O)Nc2ccc(S(=O)(=O)N3CCOCC3)cc21 | 23 | 24 | 25 | 23 | 22 | 19 | 8.88 (≈ 25.8 µM) | 35.5 (≈ 103 µM) | 7.81 (≈ 22.7 µM) | 15.6 (≈ 45.4 µM) | 6.25 (≈ 18.2 µM) | 62.5 (≈ 182 µM) | 11.5 (≈ 33.5 µM) | 46.2 (≈ 134 µM) | 15.6 (≈ 45.4 µM) | 28.1 (≈ 81.6 µM) | 12.5 (≈ 36.3 µM) | 100 (≈ 290 µM) | 24 | 24 | zone of inhibition at 500 µg/mL [21]: 25 mm; zone of inhibition at 500 µg/mL [22]: 23 mm; MIC [23]: 3.9 µg/mL (≈ 11.3 µM); MIC [24]: 4.44 µg/mL (≈ 12.9 µM); MIC [25]: 3.9 µg/mL (≈ 11.3 µM); MIC [26]: 4.44 µg/mL (≈ 12.9 µM); MBC [27]: 5.04 µg/mL (≈ 14.6 µM); MBC [28]: 8.88 µg/mL (≈ 25.8 µM); MBC [29]: 6.24 µg/mL (≈ 18.1 µM); MBC [30]: 7.99 µg/mL (≈ 23.2 µM); Activity [31]: 145.7%; IC50 [32]: 26.4 µM
